Among the data in ChEMBL document CHEMBL5728172, “Pteridine dione monocarboxylate transporter inhibitors” (2020) are EC50 values, retold here.

A word on the EC50: it is the concentration needed to bring the measured effect to its halfway point.

This test in a line: Biological Activity of Selected Compounds of the Invention: Specific Examples of compounds of the invention, with estimated EC50 values determined using an MTT assay for 4-day viability of Raji (Burkitt's) lymphoma cells, a cell line known to highly express MCT1 and to be sensitive to small molecule MCT inhibitors,4 are shown in Table 3. Assay protocols follow those described in the literature.4 Other assays that are not described here but that are standard in the field, such as an assay for competitive inhibition of transport of radiolabeled lactic acid, an MCT substrate, may also be useful in establishing mechanism of action of these compounds. The note with it: 96 h.

With `CC(C)Cn1c(=O)n(C)c(=O)c2nc(CCCCCO)c(COc3cccc4ncccc34)nc21`, the EC50 was below 50 nM.
